Reference: ChEMBL document CHEMBL5131437, “Development of novel 2-aminoalkyl-6-(2-hydroxyphenyl)pyridazin-3(2H)-one derivatives as balanced multifunctional agents against Alzheimer's disease” (Eur J Med Chem, 2022)

Experiments:
[1] = target: Amyloid-beta precursor protein (Homo sapiens) (UniProt P05067); experiment: Inhibition of self-induced amyloid beta (1 to 42) (unknown origin) aggregation by Thioflavin T based fluorometric assay relative to control; design: concentration or dose not given beside the values; conditions: concentration not given here
Acetylcholinesterase = Acetylcholinesterase (Electrophorus electricus, UniProt O42275); experiment: Inhibition of electric eel AChE by Ellman's method
[2] = Antioxidant activity of compound assessed as trolox equivalent of ORAC radical scavenging activity by ORAC-FL assay; type: functional
[3] = target: Amyloid-beta precursor protein (Homo sapiens) (UniProt P05067); experiment: Inhibition of self-induced amyloid beta (1 to 42) (unknown origin) disaggregation by Thioflavin T based fluorometric assay relative to control; design: concentration or dose not given beside the values; conditions: concentration not given here
[4] = test system: Butyrylcholinesterase (Rattus norvegicus); experiment: Inhibition of rat serum BuChE at 10 uM by Ellman's method relative to control
[5] = target: Acetylcholinesterase (Electrophorus electricus) (UniProt O42275); experiment: Inhibition of electric eel AChE at 10 uM by Ellman's method relative to control
Sequence of Acetylcholinesterase (Electrophorus electricus) (O42275 24-633 limits assumed): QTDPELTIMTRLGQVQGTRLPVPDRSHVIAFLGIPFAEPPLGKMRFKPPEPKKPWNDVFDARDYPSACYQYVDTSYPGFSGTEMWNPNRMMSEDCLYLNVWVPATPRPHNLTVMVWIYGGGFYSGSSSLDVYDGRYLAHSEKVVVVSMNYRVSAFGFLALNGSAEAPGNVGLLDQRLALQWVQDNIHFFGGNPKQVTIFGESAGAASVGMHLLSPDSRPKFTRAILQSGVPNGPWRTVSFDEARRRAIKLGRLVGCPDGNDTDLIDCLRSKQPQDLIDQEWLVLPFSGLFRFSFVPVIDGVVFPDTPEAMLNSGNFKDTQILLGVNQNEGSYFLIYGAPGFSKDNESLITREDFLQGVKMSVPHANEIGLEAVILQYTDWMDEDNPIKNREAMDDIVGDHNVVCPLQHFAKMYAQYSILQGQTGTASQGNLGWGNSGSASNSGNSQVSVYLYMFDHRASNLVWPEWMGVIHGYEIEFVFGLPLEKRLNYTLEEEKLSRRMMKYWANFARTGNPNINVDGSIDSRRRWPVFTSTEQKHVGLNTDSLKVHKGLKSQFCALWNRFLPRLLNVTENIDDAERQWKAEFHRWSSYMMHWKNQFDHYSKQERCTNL

Sequence of Acetylcholinesterase (O42275 whole entry): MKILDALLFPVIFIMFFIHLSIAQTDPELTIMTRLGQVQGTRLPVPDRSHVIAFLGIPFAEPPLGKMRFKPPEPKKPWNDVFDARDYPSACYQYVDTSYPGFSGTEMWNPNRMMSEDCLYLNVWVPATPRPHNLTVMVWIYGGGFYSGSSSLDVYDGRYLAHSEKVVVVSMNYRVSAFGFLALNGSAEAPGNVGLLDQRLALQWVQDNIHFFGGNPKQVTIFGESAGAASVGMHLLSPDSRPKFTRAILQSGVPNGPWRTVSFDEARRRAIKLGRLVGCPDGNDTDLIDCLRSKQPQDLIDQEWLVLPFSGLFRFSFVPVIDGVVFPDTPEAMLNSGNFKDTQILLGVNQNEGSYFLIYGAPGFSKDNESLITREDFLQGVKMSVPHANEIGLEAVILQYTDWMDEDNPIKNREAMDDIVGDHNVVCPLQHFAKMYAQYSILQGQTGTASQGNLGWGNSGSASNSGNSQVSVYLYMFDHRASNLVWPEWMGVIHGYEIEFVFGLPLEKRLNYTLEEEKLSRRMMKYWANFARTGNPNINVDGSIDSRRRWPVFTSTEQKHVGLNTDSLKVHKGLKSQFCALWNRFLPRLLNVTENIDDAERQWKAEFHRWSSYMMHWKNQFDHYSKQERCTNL
Sequence of Amyloid-beta precursor protein (Homo sapiens) (P05067 whole entry): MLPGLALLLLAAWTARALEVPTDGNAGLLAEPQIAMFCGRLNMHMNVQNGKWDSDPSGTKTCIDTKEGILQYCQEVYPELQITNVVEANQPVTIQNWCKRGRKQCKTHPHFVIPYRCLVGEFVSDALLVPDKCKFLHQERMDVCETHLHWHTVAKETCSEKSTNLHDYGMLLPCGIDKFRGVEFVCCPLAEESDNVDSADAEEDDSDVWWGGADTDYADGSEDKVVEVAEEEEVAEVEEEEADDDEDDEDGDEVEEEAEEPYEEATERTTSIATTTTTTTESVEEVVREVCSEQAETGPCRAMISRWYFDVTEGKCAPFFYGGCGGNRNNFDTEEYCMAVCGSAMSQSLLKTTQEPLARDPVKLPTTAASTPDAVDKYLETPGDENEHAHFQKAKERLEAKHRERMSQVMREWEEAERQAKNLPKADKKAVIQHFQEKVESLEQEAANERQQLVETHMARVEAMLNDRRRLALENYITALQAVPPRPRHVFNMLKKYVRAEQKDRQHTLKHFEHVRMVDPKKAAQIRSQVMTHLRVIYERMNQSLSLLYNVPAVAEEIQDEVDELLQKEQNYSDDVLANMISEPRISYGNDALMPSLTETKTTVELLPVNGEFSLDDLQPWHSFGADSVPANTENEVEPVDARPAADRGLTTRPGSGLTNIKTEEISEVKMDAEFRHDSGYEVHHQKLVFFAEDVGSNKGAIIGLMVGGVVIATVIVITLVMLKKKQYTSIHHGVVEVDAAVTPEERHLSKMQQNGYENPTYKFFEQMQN

Row | Structure (SMILES) | inhibition [1] | IC50 (Acetylcholinesterase; read-out: IC50) | Activity [2] | inhibition [3] | inhibition [4] | inhibition [5] | IC50 (Acetylcholinesterase; read-out: pIC50 (converted))
1 | CCN(CCCCCCn1nc(-c2cc(NC(C)=O)ccc2O)ccc1=O)Cc1ccccc1N(C)C | 44% | 86 nM | 2.61 | 38.4% | 14.4% |  | 
2 | CCN(CCCCCCCCn1nc(-c2cc(NC(C)=O)ccc2O)ccc1=O)Cc1ccccc1N(C)C | 95.2% | 2720 nM | 3.56 |  | 36.4% |  | 
3 | CCN(CCCCCCn1nc(-c2cc(C)ccc2O)ccc1=O)Cc1ccccc1OC |  | 1650 nM | 1.38 |  | 38.9% |  | 
4 | O=c1ccc(-c2ccccc2O)nn1CCCN1CCCC1 |  |  | 2.83 |  | < 5% | 30.3% | 
5 | CN(CCCCCCn1nc(-c2ccccc2O)ccc1=O)Cc1ccccc1 |  | 930 nM | 2.78 |  | 28.6% |  | 
6 | CCN(CCCCCCn1nc(-c2cc([N+](=O)[O-])ccc2O)ccc1=O)Cc1ccccc1OC |  | 1160 nM | 0.27 |  | 31.8% |  | 
7 | CCN(CCCCCCn1nc(-c2cc(N(C)C)ccc2O)ccc1=O)Cc1cccc(F)c1 | 97% | 350 nM | 2.34 | 80.7% | 15% |  | 
8 | CCN(CC)CCCn1nc(-c2ccccc2O)ccc1=O | 33.7% |  | 2.54 |  | < 5% | 17.4% | 
9 | CCN(CCCCCCn1nc(-c2ccccc2O)ccc1=O)Cc1ccc(N(C)C)cc1 | 51.9% | 9210 nM | 3.63 |  | < 5% |  | 
10 | CCN(CCCCCCn1nc(-c2ccccc2O)ccc1=O)Cc1ccccc1 | 15.4% | 910 nM | 2.96 |  | 25.7% |  | 
11 | O=c1ccc(-c2ccccc2O)nn1CCCN1CCCCC1 |  |  | 2.32 |  | < 5% | 27.1% | 
12 | CCN(CCCn1nc(-c2ccccc2O)ccc1=O)Cc1ccccc1OC |  |  | 2.9 |  | < 5% | 15.6% | 
13 | CCN(CCCCCCn1nc(-c2cc(F)ccc2O)ccc1=O)Cc1ccccc1N(C)C | 30.3% | 160 nM | 0.82 | 26.1% | 28.8% |  | 
14 | O=c1ccc(-c2ccccc2O)nn1CCCN1CCOCC1 |  |  | 2.82 |  | < 5% | 22.7% | 
15 | O=c1ccc(-c2ccccc2O)nn1CCCCCCN1CCCC1 |  | 1600 nM | 2.98 |  | 15.7% |  | 
16 | CCN(CCCCCCn1nc(-c2cc(C)ccc2O)ccc1=O)Cc1cccc(F)c1 |  | 890 nM | 1.14 |  | 29.2% |  | 
17 | CCN(CCCCCCn1nc(-c2cc(Cl)ccc2O)ccc1=O)Cc1cccc(F)c1 |  | 1430 nM | 0.84 |  | 15.8% |  | 
18 | CCN(CCCCCCn1nc(-c2ccccc2O)ccc1=O)Cc1ccc(F)cc1 |  | 8580 nM | 2.26 |  | 9.3% |  | 
19 | CCN(CCCCCCn1nc(-c2cc(Br)ccc2O)ccc1=O)Cc1ccccc1OC |  | 880 nM | 1.53 |  | 34.2% |  | 
20 | CCN(CCCCCCn1nc(-c2ccccc2O)ccc1=O)Cc1cccc(Cl)c1 |  | 2930 nM | 1.56 |  | 17.6% |  | 
21 | CCN(CCCCCCCCn1nc(-c2cc(N(C)C)ccc2O)ccc1=O)Cc1ccccc1N(C)C | 97.4% | 16500 nM | 3.31 | 86.9% | 32.1% |  | 
22 | CCN(CCCCCCn1nc(-c2ccccc2O)ccc1=O)Cc1ccccc1OC | 36.1% | 740 nM | 2.76 |  | 24.5% |  | 372 nM
23 | CCN(CC)CCCCCCn1nc(-c2ccccc2O)ccc1=O | 33.8% | 2480 nM | 2.69 |  | 13.4% |  | 
24 | CCN(CCCCCCn1nc(-c2cc(Br)ccc2O)ccc1=O)Cc1cccc(F)c1 |  | 2570 nM | 0.98 |  | 12.9% |  | 
25 | CCN(CCCCCCn1nc(-c2cc(C)ccc2O)ccc1=O)Cc1ccccc1N(C)C |  | 280 nM | 1.26 |  | 23.9% |  | 
26 | CCN(CCCCCCn1nc(-c2cc(Cl)ccc2O)ccc1=O)Cc1ccccc1OC |  | 9250 nM | 0.96 |  | 24.3% |  | 
27 | CCN(CCCCCCn1nc(-c2cc(OC)ccc2O)ccc1=O)Cc1ccccc1N(C)C | 56.4% | 330 nM | 1.81 | 50.5% | 13.4% |  | 
28 | CCN(CCCCCCOc1ccc(-c2cc(N(C)C)ccc2O)nn1)Cc1cccc(F)c1 | 96.3% | 2270 nM | 1.29 | 85.1% | 19.3% |  | 
29 | CCN(CCCCCCn1nc(-c2cc(F)ccc2O)ccc1=O)Cc1ccccc1OC | 30.2% | 570 nM | 0.84 | 25.2% | 31.8% |  | 
